{
  "source": "patent US20220409628A1",
  "about": "“18-MC FOR TREATING OBESITY” (Mind Medicine, Inc., priority 2021, published 2022)",
  "origin": "cited, not measured here",
  "key": {"[1]": {"details": "in vivo"}, "[2]": {"details": "U.S. Pat. No. 6,780,871 to Glick, et al."}, "rats [3]": {"system": "rats", "details": "acute administration, 10-40 mg/kg i.p."}, "female rats": {"system": "female rats", "details": "pretreatment 20 mg/kg i.p., ghrelin 1 μg lateral ventricle"}, "[4]": {"system": "extracellular dopamine in the nucleus accumbens", "details": "both 20 and 40 mg/kg, ghrelin 2 μg intraventral tegmental area"}, "rats [5]": {"system": "rats", "details": "acute administration"}, "male rats": {"system": "male rats", "details": "repeated administration 20 mg/kg i.p."}, "rats [6]": {"system": "rats", "details": "unlimited access to sucrose (30%), chronic treatment 20 mg/kg i.p."}},
  "data": [
    {"smiles": "COCC[C@H]1CC2CN3CCc4c([nH]c5ccccc45)[C@](C(=O)OC)(C2)[C@H]13", "note": "[18-MC, 18-methoxycoronaridine]", "values": [
      {"measurement": "conditioned taste aversion to sucrose", "setting": "[1]", "result": "does not induce"},
      {"measurement": "self-administration of morphine, cocaine, methamphetamine, nicotine, and sucrose", "setting": "[2]", "result": "reducing self-administration"},
      {"measurement": "operant responding for sucrose", "setting": "rats [3]", "result": "reduced operant responding for sucrose"},
      {"measurement": "ghrelin-induced increases in sucrose (5%) intake", "setting": "female rats", "result": "blocked ghrelin-induced increases"},
      {"measurement": "ghrelin-induced increases in extracellular dopamine in the nucleus accumbens", "setting": "[4]", "result": "prevented"},
      {"measurement": "ad libitum ingestion of sucrose, saccharin, and saline", "setting": "rats [5]; 10-40 mg/kg i.p.", "result": "decreased ad libitum ingestion"},
      {"measurement": "consumption of water when palatable fluids were not available", "setting": "rats [5]; highest dose", "result": "reduced consumption of water"},
      {"measurement": "weight gain", "setting": "male rats; both sucrose-consuming and control animals", "result": "attenuated weight gain"},
      {"measurement": "food or fluid intake", "setting": "male rats", "result": "without altering food or fluid intake"},
      {"measurement": "consumption of sucrose", "setting": "rats [6]", "result": "reduced consumption of sucrose"},
      {"measurement": "fat deposition", "setting": "rats [6]", "result": "decreased fat deposition"},
      {"measurement": "food intake", "setting": "rats [6]", "result": "not altering food intake"},
      {"measurement": "sucrose-induced increases in body weight", "setting": "rats [6]", "result": "prevented sucrose-induced increases in body weight"},
      {"measurement": "deposition of fat", "setting": "ghrelin-treated rats", "result": "no effect"},
      {"measurement": "serum levels of glucose, triglycerides, and cholesterol", "setting": "ghrelin-treated rats", "result": "no effect"}
    ]}
  ]
}
